Measurements reported in ChEMBL document CHEMBL1122023, “Potential antitumor agents. 36. Quantitative relationships between experimental antitumor activity, toxicity, and structure for the general class of 9-anilinoacridine antitumor agents” (J Med Chem, 1982).

Experiment: physchem
Description: Ionization constant (pKa)

pKa	SMILES
6.56	CS(=O)(=O)Nc1ccc(Nc2c3ccc(Cl)cc3nc3ccc(N)cc23)cc1
7.46	CCc1ccc2nc3ccccc3c(Nc3ccc(NS(C)(=O)=O)cc3OC)c2c1
6.68	CS(=O)(=O)Nc1ccc(Nc2c3ccccc3nc3c(CO)cccc23)cc1
7.67	COc1cc(NS(C)(=O)=O)ccc1Nc1c2ccc(C)cc2nc2c(C)cccc12
5.68	COc1cc(NS(C)(=O)=O)ccc1Nc1c2ccc([N+](=O)[O-])cc2nc2c(OC)cccc12
6.91	COc1ccc2c(Nc3ccc(NS(C)(=O)=O)cc3)c3ccc(Cl)cc3nc2c1
6.18	COc1cc(NS(C)(=O)=O)ccc1Nc1c2ccc(Cl)cc2nc2cc(Cl)ccc12
7.5	COc1cc(NS(C)(=O)=O)ccc1Nc1c2ccccc2nc2cc(CCC(N)=O)ccc12
7.35	CCC(=O)Nc1ccc2c(Nc3ccc(NS(C)(=O)=O)cc3)c3ccccc3nc2c1
6.17	COc1cc(NS(C)(=O)=O)ccc1Nc1c2ccc(Br)cc2nc2cc(Br)ccc12
6.71	CS(=O)(=O)Nc1ccc(Nc2c3ccccc3nc3cc(Cl)c(N)cc23)cc1
5.94	COc1cc(NS(C)(=O)=O)ccc1Nc1c2ccccc2nc2ccncc12
7.22	COc1cc(NS(C)(=O)=O)ccc1Nc1c2ccc(N=[N+]=[N-])cc2nc2c(C)cccc12
6.9	COc1cc(NS(C)(=O)=O)ccc1Nc1c2cccc(OC)c2nc2c(OC)cccc12
4.98	COc1cc(NS(C)(=O)=O)ccc1Nc1c2ccccc2nc2cccc([N+](=O)[O-])c12
9.5	CNc1ccc2c(Nc3ccc(NS(C)(=O)=O)cc3OC)c3ccccc3nc2c1
5.81	Cc1ccc2c(Nc3ccc(NS(C)(=O)=O)cc3)c3ccc([N+](=O)[O-])cc3nc2c1
7.14	CCc1cccc2c(Nc3ccc(NS(C)(=O)=O)cc3)c3ccccc3nc12
7.26	COc1cc(NS(C)(=O)=O)ccc1Nc1c2ccccc2nc2cc(N=[N+]=[N-])ccc12
6.74	COc1cc(NS(C)(=O)=O)ccc1Nc1c2ccc(I)cc2nc2c(OC)cccc12
6.52	COc1ccc2nc3cc(Cl)ccc3c(Nc3ccc(NS(C)(=O)=O)cc3OC)c2c1

pKa	SMILES
6.72	COc1cc(NS(C)(=O)=O)ccc1Nc1c2ccc(I)cc2nc2ccc(N)cc12
6.77	CS(=O)(=O)Nc1ccc(Nc2c3ccccc3nc3cc(F)ccc23)cc1
6.56	COc1cc(NS(C)(=O)=O)ccc1Nc1c2ccccc2nc2cc(C(F)(F)F)c(N)cc12
7.36	CCCOc1cccc2c(Nc3ccc(NS(C)(=O)=O)cc3OC)c3ccccc3nc12
7.77	COc1cc(NS(C)(=O)=O)ccc1Nc1c2ccccc2nc2cc(NC(C)=O)ccc12
9.88	COc1cc(NS(C)(=O)=O)ccc1Nc1c2ccc(N)cc2nc2c(C)cccc12
7.27	CN(C)c1ccc2nc3ccccc3c(Nc3ccc(NS(C)(=O)=O)cc3)c2c1
7.64	COc1cc(NS(C)(=O)=O)ccc1Nc1c2ccccc2nc2cc(C(C)(C)C)ccc12
7.55	CC(=O)Nc1ccc2c(Nc3ccc(NS(C)(=O)=O)cc3)c3ccc(NC(C)=O)cc3nc2c1
7.13	CN(C)/N=N/c1ccc2c(Nc3ccc(NS(C)(=O)=O)cc3)c3ccccc3nc2c1
6.71	COc1cc(NS(C)(=O)=O)ccc1Nc1c2ccccc2nc2cccc(C)c12
7.1	COc1ccc2[nH]c3ccccc3c(=Nc3ccc(NS(C)(=O)=O)cc3OC)c2c1
7.38	COc1cc(NS(C)(=O)=O)ccc1N=c1c2ccccc2[nH]c2ccc(C(C)(C)C)cc12
6.59	COc1cc(NS(C)(=O)=O)ccc1N=c1c2ccccc2[nH]c2ccc(C(N)=O)cc12
6.69	COc1cc(NS(C)(=O)=O)ccc1Nc1c2ccccc2nc2ccc(Cl)cc12
7.36	COc1cc(NS(C)(=O)=O)ccc1Nc1c2ccccc2nc2cc(N)ccc12
7.36	Cc1cc(NS(C)(=O)=O)ccc1Nc1c2ccccc2nc2ccccc12
8.24	CCCNc1ccc(Nc2c3ccccc3nc3ccccc23)cc1
7.39	Cc1cc(NS(C)(=O)=O)ccc1Nc1c2ccccc2nc2c(C)cccc12
5.63	COc1cc(NS(C)(=O)=O)ccc1Nc1c2ccccc2nc2ccc([N+](=O)[O-])cc12
7.15	COc1cc(NS(=O)(=O)OC)ccc1Nc1c2ccccc2nc2c(CCC(N)=O)cccc12

pKa	SMILES
6.02	CS(=O)(=O)Nc1ccc(NS(C)(=O)=O)c(Nc2c3ccccc3nc3ccccc23)c1
7.01	COc1cc(NS(C)(=O)=O)ccc1Nc1c2ccccc2nc2cc(Br)c(N)cc12
7.65	COc1cc(NS(C)(=O)=O)ccc1Nc1c2ccccc2nc2c(C)c(C)ccc12
7.46	Cc1ccc2c(Nc3ccc(NS(C)(=O)=O)cc3)c3cccc(C)c3nc2c1
6.7	COc1cc(NS(C)(=O)=O)ccc1Nc1c2ccc(I)cc2nc2c(OCC(O)CO)cccc12 (stereo not drawn)
6.79	COc1cc(NS(C)(=O)=O)ccc1Nc1c2ccc(Cl)cc2nc2c(OC)cccc12
6.71	COc1cc(NS(C)(=O)=O)ccc1Nc1c2ccccc2nc2c(C)c(Cl)ccc12
6.26	O=[N+]([O-])c1ccc2nc3ccccc3c(Nc3ccccc3)c2c1
7.34	CCCCOc1cccc2c(Nc3ccc(NS(C)(=O)=O)cc3OC)c3ccccc3nc12
7.19	COc1cc(NS(C)(=O)=O)ccc1Nc1c2ccccc2nc2cccnc12
5.87	COc1cc(NS(C)(=O)=O)ccc1Nc1c2ccccc2nc2cc(S(C)(=O)=O)ccc12
6.91	COc1cc(NS(C)(=O)=O)ccc1Nc1c2cccc(C)c2nc2c(C)cccc12
6.57	COS(=O)(=O)Nc1ccc(Nc2c3ccccc3nc3cc(Cl)ccc23)cc1
5.42	CS(=O)(=O)Nc1ccc(Nc2c3ccccc3nc3ccccc23)cc1[N+](=O)[O-]
7.37	CCCC(=O)Nc1ccc2c(Nc3ccc(NS(C)(=O)=O)cc3)c3ccccc3nc2c1
6.03	COc1cc(NS(C)(=O)=O)ccc1Nc1c2ccc(C)cc2nc2cc([N+](=O)[O-])ccc12
6.35	COc1cc(NS(C)(=O)=O)ccc1Nc1c2ccccc2nc2c(OC3OC(CO)C(O)C(O)C3NC(C)=O)cccc12 (stereo not drawn)
7.4	COc1ccccc1Nc1c2ccccc2nc2ccc(C(C)C)c(NS(C)(=O)=O)c12
6.34	COc1cc(NS(C)(=O)=O)ccc1Nc1c2ccccc2nc2c(C(=O)NCCO)cccc12
7	COc1cc(NS(C)(=O)=O)ccc1Nc1c2ccccc2nc2c(OCC(O)CO)cccc12 (stereo in doubt; 303)

SMILES	pKa
COc1cc(NS(C)(=O)=O)ccc1Nc1c2ccc([N+](=O)[O-])cc2nc2cc([N+](=O)[O-])ccc12	3.82
